# Article PMC5218480 (PLoS ONE, 2017)
# System: MV-4-11 cells
# Experiment: Gene expression microarray analysis (Affymetrix PrimeView) and GSEA
# Type: cell-based, human
# Parameters: RFU PODN (11730768_x_at) / Fold change /veh PODN (11730768_x_at) / RFU LINC00158 (11744669_a_at) / Fold change /veh LINC00158 (11744669_a_at) / RFU DUSP10 (11751237_a_at) / Fold change /veh DUSP10 (11751237_a_at) / RFU ID3 (11757404_x_at) / Fold change /veh ID3 (11757404_x_at) / RFU PLEKHG5 (11737974_s_at) / Fold change /veh PLEKHG5 (11737974_s_at) / RFU LRRC4B (11730491_at) / Fold change /veh LRRC4B (11730491_at) / RFU GIMAP4 (11747438_a_at) / Fold change /veh GIMAP4 (11747438_a_at) / RFU KRT8 (11758183_x_at) / Fold change /veh KRT8 (11758183_x_at) / RFU CNN1 (11734310_a_at) / Fold change /veh CNN1 (11734310_a_at) / RFU VPS37D (11726825_at) / Fold change /veh VPS37D (11726825_at) / RFU C10orf10 (11716522_x_at) / Fold change /veh C10orf10 (11716522_x_at) / RFU KIR2DL2 /// KIR2DL4 /// KIR2DL5A /// KIR2DL5B /// KIR2DS1 /// KIR2DS2 /// KIR2DS3 /// KIR2DS4 /// KIR3DL3 /// KIR3DL3 /// KIR3DS1 (11738374_at) / Fold change /veh KIR2DL2 /// KIR2DL4 /// KIR2DL5A /// KIR2DL5B /// KIR2DS1 /// KIR2DS2 /// KIR2DS3 /// KIR2DS4 /// KIR3DL3 /// KIR3DL3 /// KIR3DS1 (11738374_at) / RFU C1QL1 (11718748_at) / Fold change /veh C1QL1 (11718748_at) / RFU TMPRSS4 (11747572_a_at) / Fold change /veh TMPRSS4 (11747572_a_at) / RFU HAMP (11756126_x_at) / Fold change /veh HAMP (11756126_x_at) / RFU RNFT2 (11725882_a_at) / Fold change /veh RNFT2 (11725882_a_at) / RFU NR4A2 (11747474_a_at) / Fold change /veh NR4A2 (11747474_a_at) / RFU ABCC12 (11746883_a_at) / Fold change /veh ABCC12 (11746883_a_at) / RFU TMEM136 (11760407_x_at) / Fold change /veh TMEM136 (11760407_x_at) / RFU CLDN22 /// WWC2 (11732394_at) / Fold change /veh CLDN22 /// WWC2 (11732394_at) / RFU HLA-DPB1 (11760878_x_at) / Fold change /veh HLA-DPB1 (11760878_x_at) / RFU SPINT1 (11716480_a_at) / Fold change /veh SPINT1 (11716480_a_at) / RFU GAP43 (11754022_s_at) / Fold change /veh GAP43 (11754022_s_at) / RFU A4GNT (11735810_at) / Fold change /veh A4GNT (11735810_at) / RFU PRB3 (11715151_x_at) / Fold change /veh PRB3 (11715151_x_at) / RFU TUBB4B (11761932_at) / Fold change /veh TUBB4B (11761932_at) / RFU CAPN14 (11732068_a_at) / Fold change /veh CAPN14 (11732068_a_at) / RFU TMCC2 (11721928_a_at) / Fold change /veh TMCC2 (11721928_a_at) / RFU IRGQ (11745062_a_at) / Fold change /veh IRGQ (11745062_a_at) / RFU FAM174B (11720279_a_at) / Fold change /veh FAM174B (11720279_a_at) / RFU TMPRSS4 (11748680_a_at) / Fold change /veh TMPRSS4 (11748680_a_at) / RFU FAM212B (11763350_a_at) / Fold change /veh FAM212B (11763350_a_at) / RFU PLEKHG5 (11743358_a_at) / Fold change /veh PLEKHG5 (11743358_a_at) / RFU ZSCAN30 (11745921_a_at) / Fold change /veh ZSCAN30 (11745921_a_at) / RFU CMKLR1 (11741424_a_at) / Fold change /veh CMKLR1 (11741424_a_at) / RFU LOC101060620 /// MAPK8IP1 (11723275_at) / Fold change /veh LOC101060620 /// MAPK8IP1 (11723275_at) / RFU SPTSSB (11747773_x_at) / Fold change /veh SPTSSB (11747773_x_at) / RFU PRSS12 (11739890_at) / Fold change /veh PRSS12 (11739890_at) / RFU BIN1 (11741810_x_at) / Fold change /veh BIN1 (11741810_x_at) / RFU WNT11 (11732464_a_at) / Fold change /veh WNT11 (11732464_a_at) / RFU C10orf10 (11716521_a_at) / Fold change /veh C10orf10 (11716521_a_at) / RFU C5orf56 (11738089_at) / Fold change /veh C5orf56 (11738089_at) / RFU CYB561 (11721691_x_at) / Fold change /veh CYB561 (11721691_x_at) / RFU ANKRD19P (11752326_a_at) / Fold change /veh ANKRD19P (11752326_a_at) / RFU OR2T12 /// OR2T33 /// OR2T8 (11738714_s_at) / Fold change /veh OR2T12 /// OR2T33 /// OR2T8 (11738714_s_at) / RFU VCAN (11748164_a_at) / Fold change /veh VCAN (11748164_a_at) / RFU JSRP1 (11732532_at) / Fold change /veh JSRP1 (11732532_at) / RFU KRTAP10-11 (11738290_x_at) / Fold change /veh KRTAP10-11 (11738290_x_at) / RFU MYO3A (11730013_a_at) / Fold change /veh MYO3A (11730013_a_at) / RFU EBF3 (11725865_a_at) / Fold change /veh EBF3 (11725865_a_at) / RFU CAMK2N1 (11719241_x_at) / Fold change /veh CAMK2N1 (11719241_x_at) / RFU C5orf56 (11738088_a_at) / Fold change /veh C5orf56 (11738088_a_at) / RFU OLFML3 (11715873_a_at) / Fold change /veh OLFML3 (11715873_a_at) / RFU LOC100653217 /// NTM (11731650_a_at) / Fold change /veh LOC100653217 /// NTM (11731650_a_at) / RFU MAPK11 (11762145_a_at) / Fold change /veh MAPK11 (11762145_a_at) / RFU FIZ1 (11724087_x_at) / Fold change /veh FIZ1 (11724087_x_at) / RFU OASL (11726364_x_at) / Fold change /veh OASL (11726364_x_at) / RFU SOX15 (11748057_x_at) / Fold change /veh SOX15 (11748057_x_at) / RFU CD79A (11719716_a_at) / Fold change /veh CD79A (11719716_a_at) / RFU HIST1H1D (11736915_at) / Fold change /veh HIST1H1D (11736915_at) / RFU CASKIN2 (11723855_a_at) / Fold change /veh CASKIN2 (11723855_a_at) / RFU LOC730098 (11760151_x_at) / Fold change /veh LOC730098 (11760151_x_at) / RFU OR4N2 (11742367_at) / Fold change /veh OR4N2 (11742367_at) / RFU PRRT2 (11749266_a_at) / Fold change /veh PRRT2 (11749266_a_at) / RFU SNX32 (11753110_a_at) / Fold change /veh SNX32 (11753110_a_at) / RFU CDHR5 (11726645_a_at) / Fold change /veh CDHR5 (11726645_a_at) / RFU RCAN1 (11760418_a_at) / Fold change /veh RCAN1 (11760418_a_at) / RFU FAM167A (11723789_a_at) / Fold change /veh FAM167A (11723789_a_at) / RFU FAM26E (11764081_at) / Fold change /veh FAM26E (11764081_at) / RFU ISYNA1 (11749810_s_at) / Fold change /veh ISYNA1 (11749810_s_at) / RFU ACY1 (11761880_at) / Fold change /veh ACY1 (11761880_at) / RFU 11764098_at / Fold change /veh 11764098_at / RFU SAMD14 (11745864_x_at) / Fold change /veh SAMD14 (11745864_x_at) / RFU NPB (11741838_a_at) / Fold change /veh NPB (11741838_a_at) / RFU TMPRSS6 (11731388_a_at) / Fold change /veh TMPRSS6 (11731388_a_at) / RFU KRTAP10-2 (11738614_at) / Fold change /veh KRTAP10-2 (11738614_at) / RFU ARHGAP8 /// PRR5-ARHGAP8 (11727945_x_at) / Fold change /veh ARHGAP8 /// PRR5-ARHGAP8 (11727945_x_at) / RFU KRTAP5-7 /// NADSYN1 (11734609_at) / Fold change /veh KRTAP5-7 /// NADSYN1 (11734609_at) / RFU RASL12 (11751679_a_at) / Fold change /veh RASL12 (11751679_a_at) / RFU CDKN2B (11736163_a_at) / Fold change /veh CDKN2B (11736163_a_at) / RFU PRF1 (11729649_at) / Fold change /veh PRF1 (11729649_at) / RFU, ZNF638 /// ZNF638-IT1 / Fold change vs veh, ZNF638 /// ZNF638-IT1 / RFU, PANK3 / Fold change vs veh, PANK3 / RFU, SH3YL1 / Fold change vs veh, SH3YL1 / RFU, ZEB2 / Fold change vs veh, ZEB2 / RFU, NRIP1 / Fold change vs veh, NRIP1 / RFU, PTTG1IP / Fold change vs veh, PTTG1IP / RFU, CAPN2 / Fold change vs veh, CAPN2 / RFU, MED14 / Fold change vs veh, MED14 / RFU, SNORA58 / Fold change vs veh, SNORA58 / RFU, C1orf63 / Fold change vs veh, C1orf63 / RFU, LRRFIP1 / Fold change vs veh, LRRFIP1 / RFU, NDUFAF7 / Fold change vs veh, NDUFAF7 / RFU, SLC12A2 / Fold change vs veh, SLC12A2 / RFU, IBTK / Fold change vs veh, IBTK / RFU, ESF1 / Fold change vs veh, ESF1 / Fold change vs veh, TMEM50B / RFU, TAOK1 / Fold change vs veh, TAOK1 / RFU, ACBD3 / Fold change vs veh, ACBD3 / RFU, TMA16 / Fold change vs veh, TMA16 / RFU, RWDD3 / Fold change vs veh, RWDD3 / RFU, BCAT1 / Fold change vs veh, BCAT1 / RFU, EDEM3 / Fold change vs veh, EDEM3 / RFU, TMEM33 / Fold change vs veh, TMEM33 / RFU, WDR75 / Fold change vs veh, WDR75 / RFU, AHCTF1 / Fold change vs veh, AHCTF1 / RFU, TFRC / Fold change vs veh, TFRC / RFU, ZDHHC17 / Fold change vs veh, ZDHHC17 / RFU, NOM1 / Fold change vs veh, NOM1 / RFU, ARL8B / Fold change vs veh, ARL8B / RFU, ZBTB11 / Fold change vs veh, ZBTB11 / RFU, TAMM41 / Fold change vs veh, TAMM41 / RFU, KIAA1704 /// LOC100996395 / Fold change vs veh, KIAA1704 /// LOC100996395 / RFU, ING1 / Fold change vs veh, ING1 / RFU, TRMT61B / Fold change vs veh, TRMT61B / RFU, FUBP3 / Fold change vs veh, FUBP3 / RFU, TP53 / Fold change vs veh, TP53 / RFU, TNKS2 / Fold change vs veh, TNKS2 / RFU, ZFP14 / Fold change vs veh, ZFP14 / RFU, ACTR2 / Fold change vs veh, ACTR2 / RFU, PPP3R1 / Fold change vs veh, PPP3R1 / RFU, PIK3R1 / Fold change vs veh, PIK3R1 / RFU, HNRNPA1 / Fold change vs veh, HNRNPA1 / RFU, RNF170 / Fold change vs veh, RNF170 / RFU, ZNF28 / Fold change vs veh, ZNF28 / RFU, RNGTT / Fold change vs veh, RNGTT / RFU, OGT / Fold change vs veh, OGT / RFU, BRD1 / Fold change vs veh, BRD1 / RFU, MARS / Fold change vs veh, MARS / RFU, ZNF655 / Fold change vs veh, ZNF655 / RFU, FAHD1 / Fold change vs veh, FAHD1 / RFU, BDP1 / Fold change vs veh, BDP1 / RFU, LRRCC1 / Fold change vs veh, LRRCC1 / RFU, ARID1A / Fold change vs veh, ARID1A / RFU, ZNF146 / Fold change vs veh, ZNF146 / RFU, ZNF330 / Fold change vs veh, ZNF330 / RFU, GPN3 / Fold change vs veh, GPN3 / RFU, C9orf123 / Fold change vs veh, C9orf123 / RFU, N4BP2L2 / Fold change vs veh, N4BP2L2 / RFU, ARFIP1 / Fold change vs veh, ARFIP1 / RFU, FAM179B / Fold change vs veh, FAM179B / RFU, BCL10 / Fold change vs veh, BCL10 / RFU, UHRF1BP1L / Fold change vs veh, UHRF1BP1L / RFU, BET1 / Fold change vs veh, BET1 / RFU, CNOT2 / Fold change vs veh, CNOT2 / RFU, ZNF268 / Fold change vs veh, ZNF268 / Fold change vs veh, ZNF507 / RFU, DGCR2 / Fold change vs veh, DGCR2 / RFU, WDSUB1 / Fold change vs veh, WDSUB1 / Fold change vs veh, HSP90B1 /// MIR3652 / RFU, ADSS / Fold change vs veh, ADSS / RFU, GK / Fold change vs veh, GK / RFU, ZNF148 / Fold change vs veh, ZNF148 / RFU, TAF9 / Fold change vs veh, TAF9 / RFU, SLC1A5 / Fold change vs veh, SLC1A5 / RFU, SLMO2 / Fold change vs veh, SLMO2 / RFU, ABCC4 / Fold change vs veh, ABCC4 / RFU, LOC101060439 /// RAP1B / Fold change vs veh, LOC101060439 /// RAP1B / RFU, RFX7 / Fold change vs veh, RFX7 / RFU, GTPBP10 / Fold change vs veh, GTPBP10 / RFU, CNEP1R1 / Fold change vs veh, CNEP1R1 / RFU, BIVM-ERCC5 /// ERCC5 / Fold change vs veh, BIVM-ERCC5 /// ERCC5 / RFU, ILF3 / Fold change vs veh, ILF3 / RFU 11762660_at / Fold change /veh 11762660_at / RFU VCAN (11757783_s_at) / Fold change /veh VCAN (11757783_s_at) / RFU DDX43 (11728927_at) / Fold change /veh DDX43 (11728927_at) / RFU KRT8 (11758188_x_at) / Fold change /veh KRT8 (11758188_x_at) / RFU NKD1 (11759106_at) / Fold change /veh NKD1 (11759106_at) / RFU SRD5A1 (11742802_a_at) / Fold change /veh SRD5A1 (11742802_a_at) / RFU TPSAB1 /// TPSB2 (11721975_s_at) / Fold change /veh TPSAB1 /// TPSB2 (11721975_s_at) / RFU GSTM3 (11746129_a_at) / Fold change /veh GSTM3 (11746129_a_at) / RFU IL23R (11737362_x_at) / Fold change /veh IL23R (11737362_x_at) / RFU TMEM51 (11727254_a_at) / Fold change /veh TMEM51 (11727254_a_at) / RFU PIWIL2 (11732686_x_at) / Fold change /veh PIWIL2 (11732686_x_at) / RFU ORM1 (11744905_x_at) / Fold change /veh ORM1 (11744905_x_at) / RFU CCDC152 (11743942_at) / Fold change /veh CCDC152 (11743942_at) / RFU ECM1 (11717891_a_at) / Fold change /veh ECM1 (11717891_a_at) / RFU IL23R (11748794_a_at) / Fold change /veh IL23R (11748794_a_at) / RFU TNFAIP8L3 (11732012_x_at) / Fold change /veh TNFAIP8L3 (11732012_x_at) / RFU MBOAT4 (11741988_at) / Fold change /veh MBOAT4 (11741988_at) / RFU 11764193_at / Fold change /veh 11764193_at / RFU TMEM53 (11763286_at) / Fold change /veh TMEM53 (11763286_at) / RFU MAGEB2 (11727129_at) / Fold change /veh MAGEB2 (11727129_at) / RFU TMEM200A (11744735_a_at) / Fold change /veh TMEM200A (11744735_a_at) / RFU CCDC152 (11751479_a_at) / Fold change /veh CCDC152 (11751479_a_at) / RFU FAM211A (11726209_a_at) / Fold change /veh FAM211A (11726209_a_at) / RFU RGS16 (11746705_a_at) / Fold change /veh RGS16 (11746705_a_at) / RFU VCAN (11755009_s_at) / Fold change /veh VCAN (11755009_s_at) / RFU RHOB (11743442_s_at) / Fold change /veh RHOB (11743442_s_at) / RFU RGS16 (11720943_a_at) / Fold change /veh RGS16 (11720943_a_at) / RFU RGS16 (11720944_at) / Fold change /veh RGS16 (11720944_at) / RFU, VPS4B / Fold change vs veh, VPS4B / RFU, CREB1 / Fold change vs veh, CREB1 / RFU, DNAJC13 / Fold change vs veh, DNAJC13 / RFU, GNAQ / Fold change vs veh, GNAQ / RFU, CDK5R1 / Fold change vs veh, CDK5R1 / RFU, ZRANB3 / Fold change vs veh, ZRANB3 / RFU, CUL4A / Fold change vs veh, CUL4A / RFU, CCNY / Fold change vs veh, CCNY / RFU, UFL1 / Fold change vs veh, UFL1 / RFU, COG3 / Fold change vs veh, COG3 / RFU, DIAPH2 / Fold change vs veh, DIAPH2 / RFU, SKA2 / Fold change vs veh, SKA2 / RFU, AFF3 / Fold change vs veh, AFF3 / RFU, LMF1 / Fold change vs veh, LMF1 / RFU, IPO11 / Fold change vs veh, IPO11 / RFU, DFFB / Fold change vs veh, DFFB / RFU, FOXP1 / Fold change vs veh, FOXP1 / RFU, CARD8 / Fold change vs veh, CARD8 / RFU, STRN3 / Fold change vs veh, STRN3 / RFU, ADK / Fold change vs veh, ADK / RFU, RASSF2 / Fold change vs veh, RASSF2 / RFU, WIPF1 / Fold change vs veh, WIPF1 / RFU, LARP1B / Fold change vs veh, LARP1B / RFU, RASA1 / Fold change vs veh, RASA1 / RFU, RB1 / Fold change vs veh, RB1 / RFU, PPFIA1 / Fold change vs veh, PPFIA1 / RFU, MAT2A / Fold change vs veh, MAT2A / RFU, CCT5 / Fold change vs veh, CCT5 / RFU, WDR92 / Fold change vs veh, WDR92 / RFU, CUX1 / Fold change vs veh, CUX1 / RFU, TTC7A / Fold change vs veh, TTC7A / RFU, TMEM135 / Fold change vs veh, TMEM135 / RFU, DEPTOR / Fold change vs veh, DEPTOR / RFU, CPM / Fold change vs veh, CPM / RFU, DNAJB6 / Fold change vs veh, DNAJB6 / RFU, CACNA2D3 / Fold change vs veh, CACNA2D3 / RFU, DTX4 / Fold change vs veh, DTX4 / RFU, TFCP2 / Fold change vs veh, TFCP2 / RFU, GMCL1 /// GMCL1P1 / Fold change vs veh, GMCL1 /// GMCL1P1 / RFU, AEBP2 / Fold change vs veh, AEBP2 / RFU, SNHG1 /// SNORD22 /// SNORD25 /// SNORD26 /// SNORD27 /// SNORD28 /// SNORD29 /// SNORD31 / Fold change vs veh, SNHG1 /// SNORD22 /// SNORD25 /// SNORD26 /// SNORD27 /// SNORD28 /// SNORD29 /// SNORD31 / Fold change (Aza/veh), C12orf56 (ProbeSet 11735607_a_at) / Fold change (ACY-1035/veh), C12orf56 (ProbeSet 11735607_a_at) / Fold change (Aza/veh), FGFR1OP (ProbeSet 11751329_s_at) / Fold change (ACY-1035/veh), FGFR1OP (ProbeSet 11751329_s_at) / Fold change (Aza/veh), VPS36 (ProbeSet 11739960_a_at) / Fold change (ACY-1035/veh), VPS36 (ProbeSet 11739960_a_at) / RFU SYPL1 (11715823_x_at) / Fold change /veh SYPL1 (11715823_x_at) / RFU IGFBP7 (11715501_s_at) / Fold change /veh IGFBP7 (11715501_s_at) / RFU REEP3 (11722064_at) / Fold change /veh REEP3 (11722064_at) / RFU IGLL1 (11728026_x_at) / Fold change /veh IGLL1 (11728026_x_at): dose or concentration left out as unconfirmed
# Conditions: ProbeSet 11716931_at; LIST B
smiles,measurement,value
Nc1ncn([C@@H]2O[C@H](CO)[C@@H](O)[C@H]2O)c(=O)n1 [azacitidine],"Fold change vs veh, DGCR2",0.93
